Experimental data published in ChEMBL document CHEMBL3885881, “DrugMatrix”.

Species on record: Rattus norvegicus
Test: DrugMatrix - Regimen: Daily Repeat
Type: toxicity, organism-based, Sprague-Dawley
Parameters: regimen Daily Repeat, gender Male, age 6-8 weeks
Details: in vivo, po, route oral GAVAGE, vehicle .5 % CMC; for BASOPHIL / EOSINOPHIL / ERYTHROCYTE COUNT / HEMATOCRIT / HEMOGLOBIN / LEUKOCYTE COUNT / LYMPHOCYTE / MEAN CORPUSCULAR HEMOGLOBIN / MEAN CORPUSCULAR HEMOGLOBIN CONCENTRATION / MEAN CORPUSCULAR VOLUME / MONOCYTE / NEUTROPHIL / PLATELET COUNT: tissue Blood; for ALANINE AMINOTRANSFERASE / ALBUMIN / ALKALINE PHOSPHATASE / ASPARTATE AMINOTRANSFERASE / BLOOD UREA NITROGEN / CHLORIDE / CHOLESTEROL / CREATINE PHOSPHOKINASE / CREATININE / GLUCOSE / PHOSPHORUS / POTASSIUM / SODIUM / TOTAL BILIRUBIN / TOTAL PROTEIN: tissue Plasma
[1] = 0 mg/kg, 72 h, dose level Control, time 3 day
[2] = 0 mg/kg, 120 h, dose level Control, time 5 day
[3] = 41 mg/kg, 72 h, dose level High, time 3 day
[4] = 41 mg/kg, 120 h, dose level High, time 5 day
[5] = […], 72 h, dose 4.1 mg/Kg, dose level Low, time 3 day
[6] = […], 120 h, dose 4.1 mg/Kg, dose level Low, time 5 day

SMILES: O=C1c2ccccc2C(=O)C1c1ccccc1 [PHENINDIONE]
- BASOPHIL [1]: 0.68%
- EOSINOPHIL [1]: 0.46%
- ERYTHROCYTE COUNT [1]: 7.15 x10E6/uL
- HEMATOCRIT [1]: 45.44%
- HEMOGLOBIN [1]: 14.1 G/DL
- LEUKOCYTE COUNT [1]: 9.78 x10E3/uL
- LYMPHOCYTE [1]: 84.44%
- MEAN CORPUSCULAR HEMOGLOBIN [1]: 19.72 pg
- MEAN CORPUSCULAR HEMOGLOBIN CONCENTRATION [1]: 31 G/DL
- MEAN CORPUSCULAR VOLUME [1]: 63.66 fL
- MONOCYTE [1]: 2.14%
- NEUTROPHIL [1]: 11.16%
- PLATELET COUNT [1]: 1378.2 x10E3/uL
- ALANINE AMINOTRANSFERASE [1]: 42.33 u/L
- ALBUMIN [1]: 3.8 G/DL
- ALKALINE PHOSPHATASE [1]: 388.17 u/L
- ASPARTATE AMINOTRANSFERASE [1]: 68 u/L
- BLOOD UREA NITROGEN [1]: 16.17 mg/dL
- CHLORIDE [1]: 96.67 MEQ/L
- CHOLESTEROL [1]: 71 mg/dL
- CREATINE PHOSPHOKINASE [1]: 156.17 u/L
- CREATININE [1]: 0.57 mg/dL
- GLUCOSE [1]: 193.67 mg/dL
- PHOSPHORUS [1]: 11.43 mg/dL
- POTASSIUM [1]: 7 MEQ/L
- SODIUM [1]: 140.33 MEQ/L
- TOTAL BILIRUBIN [1]: 0.48 mg/dL
- TOTAL PROTEIN [1]: 6.8 G/DL
- BASOPHIL [2]: 1.47%
- EOSINOPHIL [2]: 1%
- ERYTHROCYTE COUNT [2]: 7.12 x10E6/uL
- HEMATOCRIT [2]: 45.47%
- HEMOGLOBIN [2]: 14.1 G/DL
- LEUKOCYTE COUNT [2]: 11.38 x10E3/uL
- LYMPHOCYTE [2]: 82.57%
- MEAN CORPUSCULAR HEMOGLOBIN [2]: 19.82 pg
- MEAN CORPUSCULAR HEMOGLOBIN CONCENTRATION [2]: 31.02 G/DL
- MEAN CORPUSCULAR VOLUME [2]: 63.88 fL
- MONOCYTE [2]: 2.2%
- NEUTROPHIL [2]: 11.97%
- PLATELET COUNT [2]: 1267 x10E3/uL
- ALANINE AMINOTRANSFERASE [2]: 38 u/L
- ALBUMIN [2]: 3.72 G/DL
- ALKALINE PHOSPHATASE [2]: 391 u/L
- ASPARTATE AMINOTRANSFERASE [2]: 65.83 u/L
- BLOOD UREA NITROGEN [2]: 14.17 mg/dL
- CHLORIDE [2]: 107.67 MEQ/L
- CHOLESTEROL [2]: 61 mg/dL
- CREATINE PHOSPHOKINASE [2]: 148.33 u/L
- CREATININE [2]: 0.57 mg/dL
- GLUCOSE [2]: 177.17 mg/dL
- PHOSPHORUS [2]: 12.07 mg/dL
- POTASSIUM [2]: 7.2 MEQ/L
- SODIUM [2]: 151.5 MEQ/L
- TOTAL BILIRUBIN [2]: 0.58 mg/dL
- TOTAL PROTEIN [2]: 6.72 G/DL
- BASOPHIL [3]: 0.3%
- EOSINOPHIL [3]: 0.33%
- ERYTHROCYTE COUNT [3]: 7.21 x10E6/uL
- HEMATOCRIT [3]: 45.77%
- HEMOGLOBIN [3]: 14.17 G/DL
- LEUKOCYTE COUNT [3]: 11.97 x10E3/uL
- LYMPHOCYTE [3]: 84.4%
- MEAN CORPUSCULAR HEMOGLOBIN [3]: 19.77 pg
- MEAN CORPUSCULAR HEMOGLOBIN CONCENTRATION [3]: 30.97 G/DL
- MEAN CORPUSCULAR VOLUME [3]: 63.73 fL
- MONOCYTE [3]: 2.13%
- NEUTROPHIL [3]: 11.97%
- PLATELET COUNT [3]: 1382.67 x10E3/uL
- ALANINE AMINOTRANSFERASE [3]: 31.33 u/L
- ALBUMIN [3]: 3.67 G/DL
- ALKALINE PHOSPHATASE [3]: 276 u/L
- ASPARTATE AMINOTRANSFERASE [3]: 57 u/L
- BLOOD UREA NITROGEN [3]: 11 mg/dL
- CHLORIDE [3]: 96 MEQ/L
- CHOLESTEROL [3]: 75.33 mg/dL
- CREATINE PHOSPHOKINASE [3]: 160 u/L
- CREATININE [3]: 0.47 mg/dL
- GLUCOSE [3]: 189.67 mg/dL
- PHOSPHORUS [3]: 13.23 mg/dL
- POTASSIUM [3]: 6.77 MEQ/L
- SODIUM [3]: 140.67 MEQ/L
- TOTAL BILIRUBIN [3]: 0.27 mg/dL
- TOTAL PROTEIN [3]: 6.63 G/DL
- BASOPHIL [4]: 1.47%
- EOSINOPHIL [4]: 0.3%
- ERYTHROCYTE COUNT [4]: 7.12 x10E6/uL
- HEMATOCRIT [4]: 45.4%
- HEMOGLOBIN [4]: 14.17 G/DL
- LEUKOCYTE COUNT [4]: 14.99 x10E3/uL
- LYMPHOCYTE [4]: 85.6%
- MEAN CORPUSCULAR HEMOGLOBIN [4]: 19.93 pg
- MEAN CORPUSCULAR HEMOGLOBIN CONCENTRATION [4]: 31.23 G/DL
- MEAN CORPUSCULAR VOLUME [4]: 63.83 fL
- MONOCYTE [4]: 2.43%
- NEUTROPHIL [4]: 9.5%
- PLATELET COUNT [4]: 1502.67 x10E3/uL
- ALANINE AMINOTRANSFERASE [4]: 34 u/L
- ALBUMIN [4]: 3.53 G/DL
- ALKALINE PHOSPHATASE [4]: 292 u/L
- ASPARTATE AMINOTRANSFERASE [4]: 57 u/L
- BLOOD UREA NITROGEN [4]: 10.67 mg/dL
- CHLORIDE [4]: 103.67 MEQ/L
- CHOLESTEROL [4]: 83.33 mg/dL
- CREATINE PHOSPHOKINASE [4]: 132.67 u/L
- CREATININE [4]: 0.47 mg/dL
- GLUCOSE [4]: 192.67 mg/dL
- PHOSPHORUS [4]: 12.77 mg/dL
- POTASSIUM [4]: 7.37 MEQ/L
- SODIUM [4]: 150 MEQ/L
- TOTAL BILIRUBIN [4]: 0.37 mg/dL
- TOTAL PROTEIN [4]: 6.43 G/DL
- BASOPHIL [5]: 0.47%
- EOSINOPHIL [5]: 0.27%
- ERYTHROCYTE COUNT [5]: 7.09 x10E6/uL
- HEMATOCRIT [5]: 45.17%
- HEMOGLOBIN [5]: 13.97 G/DL
- LEUKOCYTE COUNT [5]: 12.61 x10E3/uL
- LYMPHOCYTE [5]: 82.37%
- MEAN CORPUSCULAR HEMOGLOBIN [5]: 19.7 pg
- MEAN CORPUSCULAR HEMOGLOBIN CONCENTRATION [5]: 30.9 G/DL
- MEAN CORPUSCULAR VOLUME [5]: 63.73 fL
- MONOCYTE [5]: 2.5%
- NEUTROPHIL [5]: 13.5%
- PLATELET COUNT [5]: 1416.33 x10E3/uL
- ALANINE AMINOTRANSFERASE [5]: 33 u/L
- ALBUMIN [5]: 3.63 G/DL
- ALKALINE PHOSPHATASE [5]: 396.33 u/L
- ASPARTATE AMINOTRANSFERASE [5]: 56 u/L
- BLOOD UREA NITROGEN [5]: 11.33 mg/dL
- CHLORIDE [5]: 96 MEQ/L
- CHOLESTEROL [5]: 74.67 mg/dL
- CREATINE PHOSPHOKINASE [5]: 136.67 u/L
- CREATININE [5]: 0.47 mg/dL
- GLUCOSE [5]: 209.33 mg/dL
- PHOSPHORUS [5]: 12.83 mg/dL
- POTASSIUM [5]: 6.4 MEQ/L
- SODIUM [5]: 140.33 MEQ/L
- TOTAL BILIRUBIN [5]: 0.27 mg/dL
- TOTAL PROTEIN [5]: 6.5 G/DL
- BASOPHIL [6]: 1.43%
- EOSINOPHIL [6]: 0.2%
- ERYTHROCYTE COUNT [6]: 6.9 x10E6/uL
- HEMATOCRIT [6]: 44.03%
- HEMOGLOBIN [6]: 13.87 G/DL
- LEUKOCYTE COUNT [6]: 10.25 x10E3/uL
- LYMPHOCYTE [6]: 84.9%
- MEAN CORPUSCULAR HEMOGLOBIN [6]: 20.03 pg
- MEAN CORPUSCULAR HEMOGLOBIN CONCENTRATION [6]: 31.4 G/DL
- MEAN CORPUSCULAR VOLUME [6]: 63.83 fL
- MONOCYTE [6]: 2.17%
- NEUTROPHIL [6]: 10.6%
- PLATELET COUNT [6]: 1408.33 x10E3/uL
- ALANINE AMINOTRANSFERASE [6]: 37.33 u/L
- ALBUMIN [6]: 3.6 G/DL
- ALKALINE PHOSPHATASE [6]: 340.67 u/L
- ASPARTATE AMINOTRANSFERASE [6]: 58 u/L
- BLOOD UREA NITROGEN [6]: 9 mg/dL
- CHLORIDE [6]: 103.33 MEQ/L
- CHOLESTEROL [6]: 58 mg/dL
- CREATINE PHOSPHOKINASE [6]: 132.33 u/L
- CREATININE [6]: 0.43 mg/dL
- GLUCOSE [6]: 190.33 mg/dL
- PHOSPHORUS [6]: 13.17 mg/dL
- POTASSIUM [6]: 7.2 MEQ/L
- SODIUM [6]: 150.33 MEQ/L
- TOTAL BILIRUBIN [6]: 0.27 mg/dL
